Test results taken from EP4778922A1, “BICYCLIC COMPOUND, AND PREPARATION METHOD THEREFOR AND PHARMACEUTICAL USE THEREOF” (Shanghai Jeyou Pharmaceutical Co., Ltd., priority 2023, dated 2025).
Like-named read-outs stand apart in the source and are kept apart here.

Experiments:
[1] = system: LNCaP cells; test: Cell proliferation inhibition assay in LNCaP cells (0.2 nM DHT, CellTiter-Glo, 7 days); type: cell-based, human
Description: • 1. The human prostate cancer cell lines 22RV1 and LNCaP were purchased from ATCC. […] The cell concentration was adjusted to an appropriate concentration (determined based on the results of cell density optimization experiments), and the cells were seeded into a 96-well plate. A 100 µL cell suspension was added, resulting in 3000 cells per well. […] On the second day, for 22Rv1 cells, test compounds at different concentrations were added, and the cells were incubated at 37°C in a 5% CO2 incubator for 7 days; for LNCaP cells, test compounds at different concentrations were added first, and after 1 hour of treatment, 0.2 nM DHT was added. The cells were then incubated at 37°C in a 5% CO2 incubator for 7 days. • 4. After the incubation period, a volume of CellTiter-Glo detection reagent equal to the volume of the culture medium was added to each well. The plate was shaken and mixed thoroughly for 5 minutes, then incubated at room temperature for 10 minutes. Readings were taken using a PerkinElmer EnVision microplate reader. • 5.
The IC50 curve was fitted and the IC50 value was calculated using the software GraphPad Prism 8 with the calculation formula XY-analysis/Nonlinear regression (curve fit)/Dose response-Inhibition/log (inhibitor) vs. response-Variable slope (four parameters).

[2] = target: T1, CYP3A4 (testosterone/midazolam) (Homo sapiens, UniProt P08684); test: CYP inhibition assay in human liver microsomes; type: in vitro ADME
T1 construct: co-incubated with human liver microsomes; from tissue; host or cells: human liver microsomes
Description: (§1) Test Example 3: CYP Inhibition Assay
(§2) An in vitro assay system was used to evaluate the effects of the compounds on the activities of several human liver microsomal cytochrome P450 (CYP) isozymes (CYP1A2, CYP2C9, CYP2D6, CYP3A4 (testosterone/midazolam), CYP2C19, and CYP2C8). Specific probe substrates for CYP450 isozymes were co-incubated with human liver microsomes and the compound at various concentrations (0, 0.0300, 0.100, 0.300, 1.00, 3.00, 10.0 µM). The reaction was initiated by adding the coenzyme NADPH. After the reaction was completed, the samples were processed, and the metabolites generated from the probe substrates were detected by liquid chromatography-tandem mass spectrometry (LC-MS/MS). Based on the resulting dose-response curves, the IC50 values of the test compounds for the probe substrate reactions catalyzed by each CYP isozyme were calculated.

[3] = target: T2, CYP2C19 (Homo sapiens, UniProt P33261); test: CYP inhibition assay in human liver microsomes; type: in vitro ADME; settings: human liver microsomes, NADPH; read-out: CYPs 2C19 (IC50)
T2 construct: co-incubated with human liver microsomes; from tissue; host or cells: human liver microsomes
Description: as §1, §2

[4] = target: T3, CYP2C8 (Homo sapiens, UniProt P10632); test: CYP inhibition assay in human liver microsomes; type: in vitro ADME; settings: human liver microsomes, NADPH; read-out: CYPs 2C8 (IC50)
T3 construct: co-incubated with human liver microsomes; from tissue; host or cells: human liver microsomes
T3 sequence (P10632 1-490): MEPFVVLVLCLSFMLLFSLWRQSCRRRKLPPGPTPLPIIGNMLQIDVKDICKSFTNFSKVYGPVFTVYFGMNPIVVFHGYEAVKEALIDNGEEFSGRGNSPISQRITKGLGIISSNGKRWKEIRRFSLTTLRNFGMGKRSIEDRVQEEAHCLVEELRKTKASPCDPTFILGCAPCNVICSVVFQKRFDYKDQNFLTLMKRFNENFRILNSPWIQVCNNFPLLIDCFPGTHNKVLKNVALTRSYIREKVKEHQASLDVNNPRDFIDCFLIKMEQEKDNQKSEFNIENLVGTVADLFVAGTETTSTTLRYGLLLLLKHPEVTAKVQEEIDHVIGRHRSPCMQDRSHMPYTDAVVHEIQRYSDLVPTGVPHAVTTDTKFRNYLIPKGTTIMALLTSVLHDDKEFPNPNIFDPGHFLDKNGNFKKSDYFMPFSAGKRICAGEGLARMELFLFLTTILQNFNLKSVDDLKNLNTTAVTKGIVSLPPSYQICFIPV
Description: as §1, §2

[5] = system: 22RV1 cells; test: Cell proliferation inhibition assay in 22RV1 cells (CellTiter-Glo, 7 days); type: cell-based, human
Summary of the method: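 LNCaP and 22RV1 human prostate cancer cells, 3000 per well, exposed to graded compound for 7 days at 37°C, 5% CO2; LNCaP got 0.2 nM DHT 1 h after compound. Viability by CellTiter-Glo luminescence; IC50 from four-parameter variable-slope fit.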

[6] = Mouse pharmacokinetic test; type: in vivo, ICR mice
Summary of the method: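 Male naive ICR mice (25–30 g, n=3 per route) received a single intravenous or oral dose, with feeding resumed 4 h post-dose. Blood was centrifuged at 4°C, and plasma was stored at -80°C until analysis.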

[7] = target: T4, CYP2C9 (Homo sapiens, UniProt P11712); test: CYP inhibition assay in human liver microsomes; type: in vitro ADME; settings: human liver microsomes, NADPH; read-out: CYPs 2C9 (IC50)
T4 construct: co-incubated with human liver microsomes; from tissue; host or cells: human liver microsomes
Description: as §1, §2

[8] = probe substrate midazolam, read-out: CYPs 3A4 (Midazolam) (IC50)
[9] = probe substrate testosterone, read-out: CYPs 3A4 (Testosterone) (IC50)
[10] = plasma, po, 30 mg/kg, PO-30mpk, read-out: Tmax
[11] = plasma, iv, 0.5 mg/kg, IV-0.5mpk

T4 sequence (P11712 whole entry): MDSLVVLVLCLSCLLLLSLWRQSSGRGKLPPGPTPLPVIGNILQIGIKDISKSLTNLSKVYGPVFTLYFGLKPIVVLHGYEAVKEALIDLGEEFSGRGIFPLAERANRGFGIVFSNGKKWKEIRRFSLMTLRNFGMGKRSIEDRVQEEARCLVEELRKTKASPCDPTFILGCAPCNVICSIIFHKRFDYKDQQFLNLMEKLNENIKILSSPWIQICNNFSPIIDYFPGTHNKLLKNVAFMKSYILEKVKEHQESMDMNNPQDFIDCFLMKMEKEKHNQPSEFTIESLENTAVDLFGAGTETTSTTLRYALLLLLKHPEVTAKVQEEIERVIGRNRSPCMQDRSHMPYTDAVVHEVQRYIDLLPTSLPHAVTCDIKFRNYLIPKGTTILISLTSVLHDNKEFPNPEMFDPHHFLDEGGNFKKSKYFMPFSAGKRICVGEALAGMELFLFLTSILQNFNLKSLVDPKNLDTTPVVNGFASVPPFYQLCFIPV
T1 sequence (P08684 whole entry): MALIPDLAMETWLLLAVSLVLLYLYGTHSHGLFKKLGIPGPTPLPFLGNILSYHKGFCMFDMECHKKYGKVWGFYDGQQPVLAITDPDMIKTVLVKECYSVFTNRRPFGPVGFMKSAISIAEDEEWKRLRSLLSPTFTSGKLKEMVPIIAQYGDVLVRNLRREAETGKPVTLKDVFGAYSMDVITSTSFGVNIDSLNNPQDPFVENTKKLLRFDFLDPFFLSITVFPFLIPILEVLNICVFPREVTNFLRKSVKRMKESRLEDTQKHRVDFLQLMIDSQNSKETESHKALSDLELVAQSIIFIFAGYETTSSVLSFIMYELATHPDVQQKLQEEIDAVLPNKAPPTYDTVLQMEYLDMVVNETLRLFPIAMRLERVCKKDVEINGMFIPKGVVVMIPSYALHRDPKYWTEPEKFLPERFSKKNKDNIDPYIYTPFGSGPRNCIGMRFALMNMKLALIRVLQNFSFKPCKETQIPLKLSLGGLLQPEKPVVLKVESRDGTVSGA
T2 sequence (P33261 whole entry): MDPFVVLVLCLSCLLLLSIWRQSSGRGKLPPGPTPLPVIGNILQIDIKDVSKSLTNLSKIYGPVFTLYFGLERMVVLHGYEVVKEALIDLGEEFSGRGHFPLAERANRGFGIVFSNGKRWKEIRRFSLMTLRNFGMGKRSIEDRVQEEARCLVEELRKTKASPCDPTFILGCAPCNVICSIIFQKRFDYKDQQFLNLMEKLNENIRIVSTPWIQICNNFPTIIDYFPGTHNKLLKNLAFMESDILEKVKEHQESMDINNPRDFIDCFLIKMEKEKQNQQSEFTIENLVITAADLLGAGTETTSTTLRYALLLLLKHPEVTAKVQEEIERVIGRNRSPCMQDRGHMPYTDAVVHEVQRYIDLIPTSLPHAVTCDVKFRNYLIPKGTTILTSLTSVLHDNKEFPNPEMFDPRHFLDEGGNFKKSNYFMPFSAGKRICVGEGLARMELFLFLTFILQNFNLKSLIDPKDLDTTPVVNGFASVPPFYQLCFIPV

Structure (SMILES) | IC50 [2, 8] [µM] | IC50 [2, 9] [µM] | IC50 [3] [µM] | IC50 [4] [µM] | IC50 ([5]; Homo sapiens, 22Rv1, 168 h) [µM] | Cmax ([6]; plasma, po, 30 mg/kg, PO-30mpk) [ng/mL] | half-life ([6]; plasma, po, 30 mg/kg, PO-30mpk) [h] | Tmax [6, 10] [h] | AUC(0-inf) ([6]; plasma, po, 30 mg/kg, PO-30mpk) [µg·h/mL] | IC50 [7] [µM] | other results
CC(C)(c1ccc(-c2cnc(OCc3ccnc(N4CC(S(=N)(=O)C5CC5)C4)n3)cn2)cc1)c1cc(Cl)c(OCCCl)c(C#N)c1 (single isomer, unassigned) [Compound 350A] | > 10 | > 10 | > 10 | > 10 |  |  |  |  |  |  | IC50 ([1]; Homo sapiens, LNCaP, 168 h): 0.055 µM
CC(C)(c1ccc(-c2cnc(OCc3ccnc(N4CC5(CCS5(=N)=O)C4)n3)cn2)cc1)c1cc(Cl)c(OCCCl)c(C#N)c1 (single isomer, unassigned) [Compound 375A] | > 10 | > 10 | > 10 | > 10 | 0.089 | 109000 | 6.82 | 3.3 |  |  | IC50 [1]: 0.058 µM; AUCi ([6]; PO-30mpk, 30 mg/kg): 1307.079 µg·h/mL
CC(C)(c1ccc(-c2cnc(OCc3ccnc(N4CC5(CCS5(=N)=O)C4)n3)cn2)cc1)c1cc(Cl)c(OCCCl)c(C#N)c1 (single isomer, unassigned) [Compound 375B] | > 10 | > 10 | > 10 | > 10 |  |  |  |  |  |  | IC50 [5]: 0.12 µM; IC50 ([1]; Homo sapiens, LNCaP, 168 h): 0.1 µM; AUCi ([6]; PO-30mpk, 30 mg/kg): 2620.877 µg·h/mL; Cmax (PO) ([6]; PO-30mpk, 30 mg/kg): 153425 ng/mL; T1/2 ([6]; PO-30mpk, 30 mg/kg): 8.67 h; Tmax ([6]; PO-30mpk, 30 mg/kg): 4.0 h
CC(C)(c1ccc(-c2ccc(OCc3ccnc(N=S4(=O)CCCC4)n3)cc2)cc1)c1cc(Cl)c(OCCCl)c(C#N)c1 [Compound 7] | > 10 | > 10 |  | > 10 | 0.46 | 12300 | 5 | 3.3 | 161 | 7.3 | 
CC(C)(c1ccc(-c2ccc(OCc3ccnc(N=S4(=O)CCCC4)n3)cc2)cc1)c1cnc2c(cnn2CCCl)c1 [Compound 46] | 4.5 | > 10 | > 10 | > 10 | 0.59 | 20700 | 3.58 | 4 | 220 | 6.7 | 
CC(C)(c1ccc(-c2ccc(OC3CCN(c4ccnc(P(C)(C)=O)n4)CC3)cc2)cc1)c1cc(Cl)c(OCCCl)c(C#N)c1 [Compound 48] | > 10 | > 10 | > 10 | 1.7 | 0.44 | 13000 | 18 | 4 | 358 | 5.4 | 
CC(C)(c1ccc(-c2ccc(OCc3ccnc(N4CC(S(C)(=O)=O)C4)n3)cc2)cc1)c1cc(Cl)c(OCCCl)c(C#N)c1 [Compound 53] | > 10 | > 10 | > 10 | > 10 | 0.28 | 13200 | 28.1 | 4 | 421 | > 10 | C0 ([6]; plasma, 0.5 mg/kg, IV-0.5mpk): 2100 ng/mL; clearance ([6]; plasma, 0.5 mg/kg, IV-0.5mpk): 0.59 mL/min/kg; bioavailability ([6]; plasma, 30 mg/kg, PO-30mpk vs IV-0.5mpk): 68.4%; AUC(0-inf) [6, 11]: 10.2 µg·h/mL; half-life [6, 11]: 33.6 h
CC(C)(c1ccc(-c2ccc(OCc3ccnc(N4CC5(CC(P(C)(C)=O)C5)C4)n3)cc2)cc1)c1cc(Cl)c(OCCCl)c(C#N)c1 [Compound 61] | > 10 | > 10 | > 10 | > 10 | 0.38 | 15600 | 7.6 | 6 | 242 | > 10 | 
